# Values joined by “and” are separate entries in the source; they are usually repeats but may differ in a detail not shown here. Equal values may be shown once. Read-outs that look alike come from different tables or passages of the source.
# What was measured:
# Test in all cases: SelectScreen kinase assay
# [1] = molecular target: AKT1 (PKB alpha) (Homo sapiens, UniProt P31749); settings: for Inhibition at 1 µM (%): AKT1 (PKB alpha), ZLYTE, ATP Km app
# Experimental: (§1) Selectivity profiling assays were performed by the Invitrogen SelectScreen™ Services. […] The concentration of ATP was selected to be equal to the KM, unless indicated otherwise.
# [2] = molecular target: CSF1R (FMS) (Homo sapiens, UniProt P07333)
# Experimental: as §1
# [3] = molecular target: MAPKAPK3 (Homo sapiens, UniProt Q16644)
# Experimental: as §1
# [4] = molecular target: T1, TBK1 (Homo sapiens, UniProt Q9UHD2)
# T1 sequence (Q9UHD2 1-729): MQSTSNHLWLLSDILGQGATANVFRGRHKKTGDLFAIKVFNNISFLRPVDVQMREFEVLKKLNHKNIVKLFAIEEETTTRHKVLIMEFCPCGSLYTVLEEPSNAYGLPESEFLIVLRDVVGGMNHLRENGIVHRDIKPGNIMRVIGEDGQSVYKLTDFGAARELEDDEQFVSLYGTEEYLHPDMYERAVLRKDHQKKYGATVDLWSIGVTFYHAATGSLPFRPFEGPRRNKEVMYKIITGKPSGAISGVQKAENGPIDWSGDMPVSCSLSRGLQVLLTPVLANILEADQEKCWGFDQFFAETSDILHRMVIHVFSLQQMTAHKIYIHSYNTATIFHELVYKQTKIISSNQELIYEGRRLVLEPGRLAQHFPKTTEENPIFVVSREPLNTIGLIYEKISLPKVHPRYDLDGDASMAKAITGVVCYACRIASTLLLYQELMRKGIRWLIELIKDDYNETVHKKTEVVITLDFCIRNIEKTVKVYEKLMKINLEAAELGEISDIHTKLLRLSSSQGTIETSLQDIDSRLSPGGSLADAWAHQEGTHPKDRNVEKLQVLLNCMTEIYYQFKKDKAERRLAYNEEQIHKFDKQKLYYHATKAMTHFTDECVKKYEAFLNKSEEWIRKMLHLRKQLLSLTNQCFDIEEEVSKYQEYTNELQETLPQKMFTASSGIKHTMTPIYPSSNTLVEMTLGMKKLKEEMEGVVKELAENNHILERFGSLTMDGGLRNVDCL
# Experimental: as §1
# [5] = molecular target: FLT1 (VEGFR1) (Homo sapiens, UniProt P17948)
# Experimental: as §1
# [6] = molecular target: MARK1 (MARK) (Homo sapiens, UniProt Q9P0L2)
# Experimental: as §1
# [7] = molecular target: NEK8 (Homo sapiens, UniProt Q86SG6)
# Experimental: as §1
# [8] = molecular target: CDK9/cyclin K (Homo sapiens, UniProt P50750); settings: for Inhibition at 1 µM (%): CDK9/cyclin K, LanthaScreen Binding
# Experimental: as §1
# [9] = molecular target: T2, MUSK (Homo sapiens, UniProt O15146)
# T2 sequence (O15146 24-869): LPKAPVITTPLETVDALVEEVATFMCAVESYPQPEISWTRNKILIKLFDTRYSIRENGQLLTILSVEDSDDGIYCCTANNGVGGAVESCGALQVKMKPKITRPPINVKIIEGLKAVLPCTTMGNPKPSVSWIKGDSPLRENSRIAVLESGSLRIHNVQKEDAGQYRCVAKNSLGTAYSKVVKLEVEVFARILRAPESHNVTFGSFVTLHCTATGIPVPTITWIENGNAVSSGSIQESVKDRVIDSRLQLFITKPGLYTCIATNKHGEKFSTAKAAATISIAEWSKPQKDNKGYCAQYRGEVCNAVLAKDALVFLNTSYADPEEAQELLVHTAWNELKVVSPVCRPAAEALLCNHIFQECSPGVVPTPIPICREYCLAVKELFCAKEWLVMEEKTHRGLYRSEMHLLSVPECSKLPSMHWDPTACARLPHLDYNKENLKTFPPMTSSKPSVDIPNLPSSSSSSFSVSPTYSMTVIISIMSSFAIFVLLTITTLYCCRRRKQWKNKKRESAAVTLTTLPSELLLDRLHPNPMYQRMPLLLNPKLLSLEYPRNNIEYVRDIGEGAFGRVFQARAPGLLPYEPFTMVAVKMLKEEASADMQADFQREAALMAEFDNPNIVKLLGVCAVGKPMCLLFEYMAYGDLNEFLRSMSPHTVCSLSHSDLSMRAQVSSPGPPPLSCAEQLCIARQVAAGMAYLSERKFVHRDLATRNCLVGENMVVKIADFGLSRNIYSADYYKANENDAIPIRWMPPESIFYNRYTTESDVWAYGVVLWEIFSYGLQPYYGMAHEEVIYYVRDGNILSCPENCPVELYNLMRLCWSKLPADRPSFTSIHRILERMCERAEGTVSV
# Experimental: as §1
# [10] = molecular target: ICK (Homo sapiens, UniProt Q9UPZ9)
# Experimental: as §1
# [11] = 1 h, 1 μM WEL028, 1 h preincubation
# Sequence of MAPKAPK3 (Q16644 whole entry): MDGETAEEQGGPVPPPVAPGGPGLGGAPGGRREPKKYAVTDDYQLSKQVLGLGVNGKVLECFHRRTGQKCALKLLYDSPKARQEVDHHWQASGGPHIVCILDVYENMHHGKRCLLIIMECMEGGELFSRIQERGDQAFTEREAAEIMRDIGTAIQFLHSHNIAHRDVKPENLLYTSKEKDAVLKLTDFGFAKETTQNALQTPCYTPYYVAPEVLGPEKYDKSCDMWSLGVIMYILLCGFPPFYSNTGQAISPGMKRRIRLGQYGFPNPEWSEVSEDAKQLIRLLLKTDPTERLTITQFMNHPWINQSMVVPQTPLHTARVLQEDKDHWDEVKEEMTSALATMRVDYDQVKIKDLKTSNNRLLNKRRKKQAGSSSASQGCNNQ
# Sequence of AKT1 (PKB alpha) (P31749 whole entry): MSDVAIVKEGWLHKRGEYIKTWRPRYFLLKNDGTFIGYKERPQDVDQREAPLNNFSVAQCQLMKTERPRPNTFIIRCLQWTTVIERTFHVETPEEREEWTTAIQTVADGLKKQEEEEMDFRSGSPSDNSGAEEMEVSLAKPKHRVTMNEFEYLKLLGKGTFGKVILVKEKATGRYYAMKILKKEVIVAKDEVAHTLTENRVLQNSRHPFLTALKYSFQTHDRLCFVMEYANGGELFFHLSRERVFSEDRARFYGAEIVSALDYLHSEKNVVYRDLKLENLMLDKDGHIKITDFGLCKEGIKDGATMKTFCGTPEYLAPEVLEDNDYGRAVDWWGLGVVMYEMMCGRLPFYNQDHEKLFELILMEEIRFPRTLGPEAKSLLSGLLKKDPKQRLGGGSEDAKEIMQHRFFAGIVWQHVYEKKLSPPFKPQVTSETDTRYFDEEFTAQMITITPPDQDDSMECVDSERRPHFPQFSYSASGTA
# Sequence of FLT1 (VEGFR1) (P17948 27-1338): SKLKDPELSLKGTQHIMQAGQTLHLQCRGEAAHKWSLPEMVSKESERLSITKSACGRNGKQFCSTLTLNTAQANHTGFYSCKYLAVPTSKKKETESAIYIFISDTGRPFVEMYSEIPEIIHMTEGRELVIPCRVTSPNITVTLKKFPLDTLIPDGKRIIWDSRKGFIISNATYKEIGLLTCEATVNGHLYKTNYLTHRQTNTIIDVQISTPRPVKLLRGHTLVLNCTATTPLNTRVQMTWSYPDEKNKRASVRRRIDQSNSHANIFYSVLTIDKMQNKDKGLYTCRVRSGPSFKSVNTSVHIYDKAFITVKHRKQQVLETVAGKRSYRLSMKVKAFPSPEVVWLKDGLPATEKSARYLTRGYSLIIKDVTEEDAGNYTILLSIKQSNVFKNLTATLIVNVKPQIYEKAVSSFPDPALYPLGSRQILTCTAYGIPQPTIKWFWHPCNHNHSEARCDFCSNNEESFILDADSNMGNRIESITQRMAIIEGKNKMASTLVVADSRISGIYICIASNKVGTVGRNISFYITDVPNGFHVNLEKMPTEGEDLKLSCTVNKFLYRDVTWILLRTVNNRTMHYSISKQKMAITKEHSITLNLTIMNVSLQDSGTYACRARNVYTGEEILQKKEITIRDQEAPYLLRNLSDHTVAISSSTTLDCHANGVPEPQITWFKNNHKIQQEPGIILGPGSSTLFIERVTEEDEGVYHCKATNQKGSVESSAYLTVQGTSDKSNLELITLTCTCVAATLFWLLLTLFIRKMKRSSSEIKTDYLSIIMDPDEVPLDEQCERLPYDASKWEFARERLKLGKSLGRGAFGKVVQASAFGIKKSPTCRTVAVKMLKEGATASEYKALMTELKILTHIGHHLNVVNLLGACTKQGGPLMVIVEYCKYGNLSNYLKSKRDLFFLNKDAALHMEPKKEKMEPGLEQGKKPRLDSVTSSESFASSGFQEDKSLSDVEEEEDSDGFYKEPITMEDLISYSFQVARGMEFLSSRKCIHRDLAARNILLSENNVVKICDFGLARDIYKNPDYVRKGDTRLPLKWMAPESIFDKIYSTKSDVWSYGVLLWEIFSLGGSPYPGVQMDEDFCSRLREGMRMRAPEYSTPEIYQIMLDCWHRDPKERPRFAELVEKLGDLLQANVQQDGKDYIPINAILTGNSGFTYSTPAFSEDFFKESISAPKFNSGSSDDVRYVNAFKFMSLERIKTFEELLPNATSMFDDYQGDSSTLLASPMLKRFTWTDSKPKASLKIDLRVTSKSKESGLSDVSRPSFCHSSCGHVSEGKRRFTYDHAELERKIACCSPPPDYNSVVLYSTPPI
# Sequence of NEK8 (Q86SG6 whole entry): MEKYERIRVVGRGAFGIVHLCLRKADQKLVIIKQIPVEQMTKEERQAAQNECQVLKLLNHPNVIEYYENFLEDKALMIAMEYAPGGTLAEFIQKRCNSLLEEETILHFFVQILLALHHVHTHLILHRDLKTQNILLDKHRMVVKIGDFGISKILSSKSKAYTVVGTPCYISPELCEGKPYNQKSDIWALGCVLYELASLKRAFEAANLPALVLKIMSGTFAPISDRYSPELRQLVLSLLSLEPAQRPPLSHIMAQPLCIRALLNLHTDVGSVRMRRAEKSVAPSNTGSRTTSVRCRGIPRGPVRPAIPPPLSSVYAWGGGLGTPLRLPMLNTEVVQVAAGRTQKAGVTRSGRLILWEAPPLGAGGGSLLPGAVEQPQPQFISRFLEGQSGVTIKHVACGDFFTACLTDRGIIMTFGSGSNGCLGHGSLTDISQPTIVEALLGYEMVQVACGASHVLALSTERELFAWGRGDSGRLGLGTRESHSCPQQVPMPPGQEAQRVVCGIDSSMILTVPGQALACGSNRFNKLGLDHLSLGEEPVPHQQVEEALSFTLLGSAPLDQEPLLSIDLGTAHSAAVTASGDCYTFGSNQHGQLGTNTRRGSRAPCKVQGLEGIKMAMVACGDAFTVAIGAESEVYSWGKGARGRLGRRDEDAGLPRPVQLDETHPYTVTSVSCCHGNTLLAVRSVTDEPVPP
# Sequence of CSF1R (FMS) (P07333 20-972): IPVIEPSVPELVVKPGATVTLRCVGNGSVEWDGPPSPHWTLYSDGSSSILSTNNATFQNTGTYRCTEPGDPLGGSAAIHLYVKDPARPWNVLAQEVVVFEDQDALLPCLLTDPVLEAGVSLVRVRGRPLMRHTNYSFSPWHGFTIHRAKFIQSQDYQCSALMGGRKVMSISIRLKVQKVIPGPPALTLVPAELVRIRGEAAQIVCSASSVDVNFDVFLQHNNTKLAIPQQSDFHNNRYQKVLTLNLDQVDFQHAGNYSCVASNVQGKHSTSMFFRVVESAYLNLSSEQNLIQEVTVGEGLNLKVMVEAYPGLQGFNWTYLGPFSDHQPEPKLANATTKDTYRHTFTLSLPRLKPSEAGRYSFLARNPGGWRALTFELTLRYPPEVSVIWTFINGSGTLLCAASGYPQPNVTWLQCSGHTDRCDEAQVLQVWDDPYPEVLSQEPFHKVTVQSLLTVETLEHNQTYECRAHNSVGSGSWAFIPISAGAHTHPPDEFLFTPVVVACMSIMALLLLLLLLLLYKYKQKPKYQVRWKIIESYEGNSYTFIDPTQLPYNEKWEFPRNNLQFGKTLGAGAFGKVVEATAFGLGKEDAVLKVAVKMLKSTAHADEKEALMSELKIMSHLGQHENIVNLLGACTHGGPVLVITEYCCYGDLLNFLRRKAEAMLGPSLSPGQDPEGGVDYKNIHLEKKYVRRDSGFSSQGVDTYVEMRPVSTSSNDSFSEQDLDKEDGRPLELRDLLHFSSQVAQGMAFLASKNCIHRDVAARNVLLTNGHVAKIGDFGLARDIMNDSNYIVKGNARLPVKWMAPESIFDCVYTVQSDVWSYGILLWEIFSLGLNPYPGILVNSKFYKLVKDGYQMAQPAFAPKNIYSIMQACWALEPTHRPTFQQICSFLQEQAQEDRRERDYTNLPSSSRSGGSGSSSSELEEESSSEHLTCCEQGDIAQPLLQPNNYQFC
# Sequence of MARK1 (MARK) (Q9P0L2 whole entry): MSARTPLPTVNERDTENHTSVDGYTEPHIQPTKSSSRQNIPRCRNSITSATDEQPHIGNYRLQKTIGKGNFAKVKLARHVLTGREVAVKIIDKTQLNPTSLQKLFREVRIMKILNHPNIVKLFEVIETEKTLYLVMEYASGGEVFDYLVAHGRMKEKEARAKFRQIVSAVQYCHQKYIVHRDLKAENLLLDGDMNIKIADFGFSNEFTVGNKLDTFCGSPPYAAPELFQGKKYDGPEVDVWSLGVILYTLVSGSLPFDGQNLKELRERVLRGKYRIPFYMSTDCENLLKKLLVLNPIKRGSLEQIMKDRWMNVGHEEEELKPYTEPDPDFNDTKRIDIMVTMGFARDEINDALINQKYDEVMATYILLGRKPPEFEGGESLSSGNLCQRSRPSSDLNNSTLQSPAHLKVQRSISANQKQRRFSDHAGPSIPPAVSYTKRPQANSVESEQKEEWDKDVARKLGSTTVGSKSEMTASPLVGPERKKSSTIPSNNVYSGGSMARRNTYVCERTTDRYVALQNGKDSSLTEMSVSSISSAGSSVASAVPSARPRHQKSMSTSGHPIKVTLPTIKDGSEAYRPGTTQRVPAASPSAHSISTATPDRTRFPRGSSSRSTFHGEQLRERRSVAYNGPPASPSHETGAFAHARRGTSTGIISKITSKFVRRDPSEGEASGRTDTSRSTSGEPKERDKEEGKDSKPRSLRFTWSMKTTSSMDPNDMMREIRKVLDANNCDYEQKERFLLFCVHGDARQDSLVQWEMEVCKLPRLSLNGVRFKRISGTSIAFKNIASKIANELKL
structure (smiles),measurement,setting,value
C#CCOc1ccc(Nc2ncc(Cl)c(Nc3ccccc3NC(=O)C=C)n2)c(OC)c1 [Compound 6],inhibition at 1 µM,[1]; [11],-3%
same,Inhibition at 1 µM (%),[1],-2%
same,Inhibition at 1 µM (%),"[1]; listed as WEL028, 1 µM",-4%
same,inhibition at 1 µM,[2]; [11],11%
same,Inhibition at 1 µM (%),"[2]; CSF1R (FMS), 1 µM, ZLYTE, ATP Km app, listed as WEL028, 1 µM",8%
same,inhibition at 1 µM,"[2]; read-out: Inhibition at 1 µM (%), CSF1R (FMS), 1 µM, ZLYTE, ATP Km app",13%
same,inhibition at 1 µM,[3]; [11],9%
same,Inhibition at 1 µM (%),"[3]; MAPKAPK3, 1 µM, ZLYTE, ATP Km app, listed as WEL028, 1 µM",10%
same,inhibition at 1 µM,"[3]; read-out: Inhibition at 1 µM (%), MAPKAPK3, 1 µM, ZLYTE, ATP Km app",9%
same,Inhibition at 1 µM (%),"[4]; 1 µM, ZLYTE, ATP Km app, listed as WEL028, 1 µM",6%
same,inhibition at 1 µM,[4]; [11],7%
same,inhibition at 1 µM,"[4]; read-out: Inhibition at 1 µM (%), 1 µM, ZLYTE, ATP Km app",8%
same,inhibition at 1 µM,[5]; [11],36%
same,Inhibition at 1 µM (%),"[5]; FLT1 (VEGFR1), 1 µM, ZLYTE, ATP Km app, listed as WEL028, 1 µM",31%
same,inhibition at 1 µM,"[5]; read-out: Inhibition at 1 µM (%), FLT1 (VEGFR1), 1 µM, ZLYTE, ATP Km app",42%
same,inhibition at 1 µM,[6]; [11],1%
same,Inhibition at 1 µM (%),"[6]; MARK1 (MARK), 1 µM, ZLYTE, ATP Km app, listed as WEL028, 1 µM",-1% and 4%
same,inhibition at 1 µM,[7]; [11],7%
same,Inhibition at 1 µM (%),"[7]; NEK8, 1 µM, LanthaScreen Binding, listed as WEL028, 1 µM",2% and 12%
same,inhibition at 1 µM,[8]; [11],5%
same,Inhibition at 1 µM (%),[8],2%
same,Inhibition at 1 µM (%),"[8]; listed as WEL028, 1 µM",7%
same,inhibition at 1 µM,[9]; [11],26%
same,Inhibition at 1 µM (%),"[9]; MUSK, 1 µM, ZLYTE, ATP Km app, listed as WEL028, 1 µM",33%
same,inhibition at 1 µM,"[9]; read-out: Inhibition at 1 µM (%), MUSK, 1 µM, ZLYTE, ATP Km app",19%
same,inhibition at 1 µM,[10]; [11],7%
same,inhibition at 1 µM,"[10]; read-out: Inhibition at 1 µM (%), ICK, 1 µM, LanthaScreen Binding",8%
